For experiment [1], the target named is Neuraminidase (NA) of A/Taiwan/1/2013(H7N9) NA-WT (Influenza A virus, UniProt A0A024E3Q2). The class given is biochemical. The note with it: read-out: IC50, nM ± SD.
The target of experiment [2] is Neuraminidase (NA) of A/Washington/01/2007, NA-WT (Influenza A virus, UniProt A7UPN3). The format is biochemical. The note with it: read-out: IC50, nM ± SD.

On to `CCC(CC)[C@H](NC(C)=O)[C@@H]1[C@H](O)[C@@H](C(=O)O)C[C@H]1N=C(N)N` [Peramivir, peramivir], for which the IC50 in experiment [1] was determined as 0.08 ± 0.02 nM; in experiment [2], 0.23 ± 0.03 nM.

These data come from paper PMC6943751 (The Journal of infectious diseases, 2014).
